Measured values: paper PMC8958511, “Development of Sulfamoylated 4-(1-Phenyl-1H-1,2,3-triazol-4-yl)phenol Derivatives as Potent Steroid Sulfatase Inhibitors for Efficient Treatment of Breast Cancer” (Journal of Medicinal Chemistry, 2022)
Like-named read-outs stand apart in the source and are kept apart here.

What was measured:
[1] = target: T1, STS in MCF-7 cells (Homo sapiens, UniProt P08842); assay: radioisotope cellular assay with [3H]E1S in MCF-7 cells; format: cell-based; settings: for remaining activity at 0.001 µM / remaining activity at 0.01 µM / remaining activity at 0.1 µM: MCF7, 20 h; for remaining activity at 0.001 µM: read-out: residual STS activity [%] 1 nM; for remaining activity at 0.01 µM: read-out: residual STS activity [%] 10 nM; for remaining activity at 0.1 µM: read-out: residual STS activity [%] 100 nM; for IC50: MCF-7 cells, substrate [3H]E1S, 3 nM
T1 construct: The radioisotope cellular assay was performed using the MCF-7 cell line; endogenous in cells; host or cells: MCF-7
T1 sequence (P08842 22-583): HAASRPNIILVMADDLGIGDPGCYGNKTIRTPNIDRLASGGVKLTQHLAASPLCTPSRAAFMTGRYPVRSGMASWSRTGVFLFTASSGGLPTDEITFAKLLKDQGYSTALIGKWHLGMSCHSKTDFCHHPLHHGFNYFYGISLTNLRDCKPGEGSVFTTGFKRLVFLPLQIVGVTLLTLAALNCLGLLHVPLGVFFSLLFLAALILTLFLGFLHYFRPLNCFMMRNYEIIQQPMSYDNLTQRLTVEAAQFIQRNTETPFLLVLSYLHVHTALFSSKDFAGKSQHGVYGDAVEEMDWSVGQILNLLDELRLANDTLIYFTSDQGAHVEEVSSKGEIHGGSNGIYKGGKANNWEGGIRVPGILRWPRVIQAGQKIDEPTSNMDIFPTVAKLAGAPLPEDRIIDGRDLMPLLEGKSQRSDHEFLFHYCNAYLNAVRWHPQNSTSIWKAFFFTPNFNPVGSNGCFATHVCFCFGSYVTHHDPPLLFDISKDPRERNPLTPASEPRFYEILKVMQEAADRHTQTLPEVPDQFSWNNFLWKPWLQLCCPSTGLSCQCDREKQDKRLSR
Protocol: All compounds were initially tested for their in cell inhibitory action at a 100 nM concentration.
The inhibitory potency of the synthesized compounds was examined in two ways, including an enzymatic assay and the radioisotope cellular test. […] The radioisotope cellular assay was performed using the MCF-7 cell line in the presence of radiolabeled [^3H]E1S.
The evaluation of the inhibitory effect of each compound with breast cancer cells was performed using a previously described method (27) with some modifications. MCF-7 cells were maintained in Dulbecco’s modified Eagle medium supplemented with 10% fetal bovine serum and cultured in the above medium until 80% confluence. […] After incubation, the medium (0.45 mL) was collected from each well, and the product formed by STS hydrolysis was extracted with toluene (4 mL). STS activity was measured using a MicroBeta radioluminometer (PerkinElmer). Assays with MCF-7 cells were carried out in triplicate.

[2] = blood morphology, blood biochemistry and organ weights of mice with 67NR tumor; settings: for spleen weight: 50 mg/kg b.w. per os
Protocol: At the end of the study, the autopsy of the animals was performed: blood was collected for further analyses of the morphology (Table S2, Supporting Information) and biochemistry (Table S3 and Figure S6, Supporting Information) and for the determination of the plasma estradiol level using the ELISA method.
Mice were injected orthotopically (in the mammary gland fat pad) with 67NR mouse mammary tumor cells derived from in vitro culture (1.5 × 10^5 cells/0.05 mL Hanks fluid/mouse). The growth of tumors has been observed. […] Animals were observed during the next 17 days and euthanized. During observation, body weight and tumor growth were monitored three times a week. The volume of the tumors was calculated according to the following formula: TV = a^2·b/2 [mm^3], (where: a—width and b—length of the tumor). Blood, tumor tissue, and liver were harvested during autopsy for further analyses. Blood aliquots (about 500 μL) were collected in EDTA containing vials for morphology analysis (Mythic 18 analyzer, Orphee), and then, the plasma was collected (centrifuged at 2500g for 15 min at 4 °C within 1 h after collection) for biochemical parameter analysis (Cobas c111, Roche).

[3] = target: T2, STS isolated from the human placenta (Homo sapiens, UniProt P08842); assay: radioisotope enzymatic assay with STS isolated from human placenta and [3H]E1S; format: biochemical; settings: for residual STS activity [%]: 0.5 μM inhibitor concentration, substrate [3H]E1S, 3 nM, triplicate; for remaining activity at 0.5 µM: read-out: residual STS activity [%]
T2 construct: radioisotope enzymatic assay using STS isolated from the human placenta; from tissue; host or cells: human placenta
T2 sequence (P08842 22-583): T1 sequence (P08842 22-583)
Protocol: The inhibitory potency of the synthesized compounds was examined in two ways, including an enzymatic assay and the radioisotope cellular test. The enzymatic assay was performed using the STS enzyme isolated from human placenta and using radiolabeled [^3H]E1S as a substrate.
The total volume of the reaction mixture was 100 μL. […] After incubation, the reaction mixture (90 μL) was collected from each well, and the product formed by STS hydrolysis was extracted with toluene (0.5 mL). STS activity was measured using a MicroBeta radioluminometer (PerkinElmer). Enzymatic assays were carried out in triplicate.

[4] = tested on: 67NR mouse mammary tumor cells; assay: antitumor activity in 67NR orthotopic mouse breast carcinoma model; format: in vivo, BALB/c mice
Protocol: The tumor volume (TV) and body weight were measured three times a week. Results for individual groups are reported in Figure S5, Supporting Information. Based on TV data, the tumor growth inhibition (TGI) was calculated for groups that received compounds and compared to that of the control group. […] The body weight of the treated animals was monitored during the study, and the body weight change (BWC) index was calculated (Figure 4). […] Body weight loss was observed between D2 and D11 and reached 4.5% at most.
The growth of tumors has been observed.

[5] = format: in vivo; settings: Table S1, MTD study, 50 mg/kg
Protocol: The mice were thus weighed, and their general health was observed. […] At the end of the study, the mice were sacrificed by dislocation of the cervical vertebrae, and the internal organs were examined macroscopically.
The mice were weighed, and their general health was observed. […] At the end of the MTD study, the autopsy was performed, and the internal organs (liver, kidney, and spleen) were weighed and macroscopically assessed.

[6] = target: T3, STS activity in murine livers and tumors (Mus musculus, UniProt P50427); assay: determination of STS activity in murine livers and tumors of treated mice; settings: for Residual STS activity [%] Liver: liver tissue of mice treated per os at 50 mg/kg b.w.; for Residual STS activity [%] Tumor: tumor tissue of mice treated per os at 50 mg/kg b.w.
T3 sequence (P50427 23-624): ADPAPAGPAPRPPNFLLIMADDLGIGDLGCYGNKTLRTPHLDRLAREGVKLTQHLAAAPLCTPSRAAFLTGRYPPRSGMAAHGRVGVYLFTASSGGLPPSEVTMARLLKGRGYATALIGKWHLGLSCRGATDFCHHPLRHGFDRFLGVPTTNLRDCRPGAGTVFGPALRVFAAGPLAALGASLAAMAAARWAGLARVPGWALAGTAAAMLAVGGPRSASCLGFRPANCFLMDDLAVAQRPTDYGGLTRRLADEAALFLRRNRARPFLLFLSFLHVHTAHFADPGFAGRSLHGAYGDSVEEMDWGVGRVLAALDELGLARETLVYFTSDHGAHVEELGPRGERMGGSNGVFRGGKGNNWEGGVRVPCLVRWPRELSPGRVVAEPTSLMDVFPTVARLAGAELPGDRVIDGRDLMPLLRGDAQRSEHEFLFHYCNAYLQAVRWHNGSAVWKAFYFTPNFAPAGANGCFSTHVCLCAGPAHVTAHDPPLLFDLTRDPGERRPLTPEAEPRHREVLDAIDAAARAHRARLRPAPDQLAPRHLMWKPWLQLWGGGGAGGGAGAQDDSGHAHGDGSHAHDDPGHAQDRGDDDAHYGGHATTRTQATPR
Protocol: Then, the samples were subjected to sonication in five cycles of 10 s each and centrifuged for 10 min at 14 000g to pellet the tissue debris. Total protein concentrations were determined in the obtained lysates using the Bradford method, and 100 μg of the total protein was used for each reaction as a source of STS activity. […] E1S (4 × 10^4 Bq, 3 nM) and 20 mM Tris-HCl, pH 7.4. The volume of the reaction mixtures was adjusted to 100 μL with water. After incubation, 60 μL of each reaction mixture was collected, and the product formed by STS hydrolysis was extracted with toluene (0.5 mL). STS activity was measured using a MicroBeta radioluminometer (PerkinElmer). Assays were carried out in triplicate.

[7] = Table S2, mice with 67NR tumor, 50 mg/kg
[8] = Table S3, plasma, mice with 67NR tumor, 50 mg/kg per os, N=9
[9] = 50 mg/kg b.w. per os, nine mice/group

Row | SMILES | remaining activity at 0.001 µM [1] [%] | remaining activity at 0.01 µM [1] [%] | remaining activity at 0.1 µM [1] [%] | IC50 [1] [nM] | spleen weight ([2]; mice with 67NR tumor) | HCT [2, 7] | HGB [2, 7] | MCH [2, 7] | MCHC [2, 7] | MCV [2, 7] | PCT [2, 7] | PDW [2, 7] | PLT [2, 7] | RBC [2, 7] | RDW [2, 7] | creatinine [2, 8] | urea [2, 8] | residual STS activity [%] [3] [%] | remaining activity at 0.5 µM [3] [%] | mice responded to the treatment [4, 9] [mice] | further results
1 | NS(=O)(=O)Oc1ccc(-c2cn(-c3cc(F)cc(F)c3)nn2)cc1 [5l, 4-(1-(3,5-difluorophenyl)-1H-1,2,3-triazol-4-yl)phenyl sulfamate] | 13.6 | 1 | 1 | 0.21 ± 0.01 | Significantly smaller spleens weights | 34,7±2,1% | 13,3±0,8 g/dL | 17,8±0,3 pg | 38,3±0,4 g/dL | 46,4±0,7 fL | 0,233±0,035% | 29,3±4,6 fL | 463,1±74 x103/uL | 7,5±0,5 x106/uL | 18,4±1% | 5,6±1,65 umol/L | 8,1±0,7 mmol/L | 17.34 ± 0.87 | 17.3 | 8 | tumor growth inhibition (TGI) ([4]; 50 mg/kg b.w. per os, 5 days a week, 67NR tumor, N = 9, vs control group): 39%; mice with much larger tumor than the mean control volume [4, 9]: 1 mice; mice with tumor volume reduced by approx. 50% compared to the TV control [4, 9]: 3 mice; GRAN [5]: 10,6±0,2%; HCT [5]: 42±1,9%; HGB [5]: 15,4±0,5 g/dL; LIMF [5]: 86,6±0,2%; MCH [5]: 17,3±0,1 pg; MCHC [5]: 36,6±0,4 g/dL; MCV [5]: 47,2±0,2 fL; MON [5]: 2,9±0,4%; PLT [5]: 596±64 10x3/uL; RBC [5]: 8,9±0,4 10x6/uL; RDW [5]: 17,3±0,2%; WBC [5]: 4,2±0,6 10x3/uL; Residual STS activity [%] Liver [6]: 10,1%; Residual STS activity [%] Tumor [6]: 1,3%
2 | NS(=O)(=O)Oc1ccc(-c2cn(-c3cc(Cl)cc(Cl)c3)nn2)cc1 [4b, 4-(1-(3,5-Dichlorophenyl)-1H-1,2,3-triazol-4-yl)phenyl Sulfamate] | 63.7 ± 2.55 | 17.8 ± 0.62 | 2 ± 0.1 | 1.71 ± 0.05 | Significantly smaller spleens weights | 36,6±2,7% | 13,7±0,9 g/dL | 17,6±0,5 pg | 37,6±0,6 g/dL | 46,8±0,9 fL | 0,248±0,03% | 27,1±3,2 fL | 512,2±72,3 x103/uL | 7,8±0,7 x106/uL | 18,2±0,5% | 4,53±1,48 umol/L | 6,94±0,69 mmol/L | 13.32 ± 0.67 | 13.3 | 7 | MPV [2, 7]: 4,9±0,2 fL; ALT [2, 8]: 27,1±3,8 U/L; AST [2, 8]: 86,6±18,5 U/L; side effects and toxicity ([4]; 50 mg/kg): no evidence of side effects and toxicity; body weight of treated tumor-bearing mice (observation) ([4]; 50 mg/kg b.w. per os): A body weight increase was observed; mice with tumor volume reduced by approx. 50% compared to the TV control [4, 9]: 5 mice; GRAN [5]: 11,0±1,7%; HCT [5]: 44,1±1,3%; HGB [5]: 16,4±0,6 g/dL; LIMF [5]: 85,7±1,7%; MCH [5]: 17,4±0,01 pg; MCHC [5]: 37,1±0,4 g/dL; MCV [5]: 46,9±0,5 fL; MON [5]: 3,3±0,5%; PLT [5]: 533±34 10x3/uL; RBC [5]: 9,4±0,4 10x6/uL; RDW [5]: 17,5±0,6%; WBC [5]: 5,1±1,6 10x3/uL; Residual STS activity [%] Liver [6]: 14,5%; Residual STS activity [%] Tumor [6]: 5,1%
